In PubChem BioAssay (NCI) one finds GI50 and TGI data, which are given here for nine compounds.

SMILES strings stand for the structures. Values joined by “and” are separate entries in the source; they are usually repeats but may differ in a detail not shown here. Identical values can stand only once.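 In this assay, cells in 96-well plates receive the compound at five concentrations for 48 hours. Endpoints are linearly interpolated between the surrounding concentrations. GI50: concentration for 50% inhibition of growth. The concentration for full growth arrest is given as TGI.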

Some test systems named below: K-562 leukemia; UACC-62 melanoma; HL-60(TB) leukemia; SN12C renal; UACC-257 melanoma; SK-MEL-5 melanoma; SF-295 CNS; A549 NSCLC.
What all share (assay): inhibition of tumour cell growth, NCI panel, 48 h

As for `O1[As]2O[As]3O[As]1O[As](O2)O3`, the GI50 in the test with K-562 leukemia was 317 nM; in the test with UACC-62 melanoma, 574 nM; in the test on HL-60(TB) leukemia, 0.344 µM; in the test on SN12C renal, 0.881 µM; in the test on UACC-257 melanoma, 1.5 µM; in the test on SK-MEL-5 melanoma, 473 nM. Besides, the results for the GI50 in the test on SF-295 CNS and with A549 NSCLC were 2630 nM and 3290 nM, respectively. The TGI stood at 2.99 µM with K-562 leukemia; 2.18 µM in the test with UACC-62 melanoma; 1.73 µM in the test with HL-60(TB) leukemia; 4.79 µM in the test on SN12C renal; 3.24 µM in the test with UACC-257 melanoma; 1.75 µM in the test on SK-MEL-5 melanoma. The TGI in the test with SF-295 CNS turned out to be 9 µM; in the test on A549 NSCLC it was 14.9 µM.

On to `NC(=O)c1ccc(-c2nc(-c3ccc4c(c3)OCO4)c(-c3ccccn3)[nH]2)cc1`, for which the GI50 in the test with K-562 leukemia is > 25000 nM and 37200 nM; in the test with UACC-62 melanoma, > 25000 nM and 35100 nM; with HL-60(TB) leukemia, > 25 µM and 29.6 µM; with SN12C renal it was > 25 µM and 42.2 µM; in the test on UACC-257 melanoma, > 64.3 µM; in the test on SK-MEL-5 melanoma, > 25000 nM and 15100 nM. Besides, the GI50 with SF-295 CNS is > 25000 nM and 24900 nM; in the test on A549 NSCLC, > 25000 nM and 27700 nM. In addition, the TGI with K-562 leukemia is > 100 µM; with UACC-62 melanoma, > 100 µM; in the test on HL-60(TB) leukemia, > 25 µM and 69.1 µM; with SN12C renal, > 100 µM; with UACC-257 melanoma, > 100 µM; in the test on SK-MEL-5 melanoma it was > 25 µM and 29.2 µM. Further, the TGI in the test with SF-295 CNS is > 25 µM and 79.1 µM; in the test on A549 NSCLC, > 100 µM.

As for `Nc1c(C(=O)c2cccc(-c3cccnc3)c2)cnn1-c1ccc(F)cc1F`, the GI50 in the test on K-562 leukemia is 962 nM; with UACC-62 melanoma, 2650 nM; in the test with HL-60(TB) leukemia, 5.76 µM; in the test with SN12C renal, 7.53 µM; in the test with UACC-257 melanoma, 6.28 µM; with SK-MEL-5 melanoma it was 1800 nM. For the same compound, the GI50 with SF-295 CNS is 3260 nM; in the test with A549 NSCLC, 2050 nM. Besides, the TGI in the test with K-562 leukemia was 24.5 µM; with UACC-62 melanoma, > 25 µM; in the test with HL-60(TB) leukemia, > 25 µM; in the test with SN12C renal, > 25 µM; in the test on UACC-257 melanoma, > 25 µM; in the test with SK-MEL-5 melanoma it was 13.8 µM. The TGI in the test on SF-295 CNS was > 24 µM; in the test on A549 NSCLC, > 25 µM.

Turning to `NC(=O)Nc1cc(-c2cccc(F)c2)sc1C(=O)N[C@H]1CCCNC1`, the GI50 in the test with K-562 leukemia is 94.9 nM and 254 nM; in the test on UACC-62 melanoma, 388 nM and 353 nM; in the test with HL-60(TB) leukemia it was 0.101 µM and 0.291 µM; with SN12C renal it was 0.0889 µM and 0.218 µM; in the test with UACC-257 melanoma it was 2.36 µM and 1.91 µM; in the test with SK-MEL-5 melanoma, 295 nM and 456 nM. In addition, the GI50 in the test with SF-295 CNS was 39.7 nM and 88.2 nM; in the test with A549 NSCLC it was 188 nM and 356 nM. Also, the TGI in the test with K-562 leukemia was > 10 µM and 10.5 µM; with UACC-62 melanoma, > 5.1 µM and 3.43 µM; with HL-60(TB) leukemia, 3.88 µM and 1.28 µM; with SN12C renal, 3.28 µM and 3.27 µM; with UACC-257 melanoma it was > 10 µM and 9.82 µM; with SK-MEL-5 melanoma, 2.06 µM and 4.27 µM. The TGI with SF-295 CNS is 0.776 µM and 2.87 µM; in the test on A549 NSCLC, 4.48 µM and 2.12 µM.

For the compound `C[C@]12CC[C@@H]3c4ccc(O)cc4CC[C@H]3[C@@H]1Cc1cnc(N)nc12`, the GI50 in the test with K-562 leukemia was 7970 nM; in the test with UACC-62 melanoma it was 13600 nM; in the test with HL-60(TB) leukemia, 22.1 µM; in the test on SN12C renal it was 20.6 µM; in the test with UACC-257 melanoma it was 28.9 µM; in the test on SK-MEL-5 melanoma, 12800 nM. Moreover, the GI50 in the test on SF-295 CNS is 15200 nM; with A549 NSCLC, 44000 nM. Moreover, the TGI was 42.6 µM with K-562 leukemia; 27.2 µM in the test with UACC-62 melanoma; > 100 µM with HL-60(TB) leukemia; 44.2 µM in the test on SN12C renal; 74.1 µM in the test with UACC-257 melanoma; 26.1 µM in the test with SK-MEL-5 melanoma. In addition, the TGI in the test with SF-295 CNS was 42.7 µM; in the test with A549 NSCLC, > 100 µM.

Turning to `CN(C)CC1CCC2=C(C1=O)C(c1ccc(Cl)c(Cl)c1)C1=C(CCC(CN(C)C)C1=O)O2` (centres undefined), the GI50 with K-562 leukemia was 2460 nM; in the test with UACC-62 melanoma it was 15300 nM; in the test with HL-60(TB) leukemia, 0.773 µM; with SN12C renal, 14 µM; in the test on UACC-257 melanoma, 5.14 µM; in the test on SK-MEL-5 melanoma it was 15200 nM. In addition, the figures for the GI50 in the test on SF-295 CNS and with A549 NSCLC were 16900 nM and 16200 nM, respectively. Further, the TGI is 6.34 µM with K-562 leukemia; 28.7 µM in the test with UACC-62 melanoma; 3.53 µM with HL-60(TB) leukemia; 30.2 µM with SN12C renal; 10.8 µM in the test with UACC-257 melanoma; 29 µM in the test with SK-MEL-5 melanoma. Moreover, the values for the TGI in the test on SF-295 CNS and in the test with A549 NSCLC were 30.5 µM and 32.2 µM, respectively.

For the compound `C#CCNCCN1C(=O)c2ccc3c4c(ccc(c24)C1=O)C(=O)N(CCNCC#C)C3=O`, the GI50 in the test on K-562 leukemia was 5250 nM; in the test on UACC-62 melanoma it was 1710 nM; with HL-60(TB) leukemia, 8.35 µM; in the test with SN12C renal, 2.62 µM; with UACC-257 melanoma, 3.08 µM; with SK-MEL-5 melanoma, 1650 nM. Besides, the GI50 in the test with SF-295 CNS is 2150 nM; in the test on A549 NSCLC, 2690 nM. Besides, the TGI in the test with K-562 leukemia worked out at 50 µM; with UACC-62 melanoma, 6.68 µM; in the test on HL-60(TB) leukemia, 25.8 µM; in the test with SN12C renal, 9.32 µM; with UACC-257 melanoma, 9.65 µM; with SK-MEL-5 melanoma, 6.56 µM. For the same compound, the TGI came to 15 µM in the test with SF-295 CNS and 11.6 µM in the test on A549 NSCLC.

As for `O=C1NOC(c2ccc(O)cc2)(c2ccc(O)cc2)c2ccccc21`, the GI50 with K-562 leukemia is > 100000 nM; with UACC-62 melanoma it was > 100000 nM; in the test with HL-60(TB) leukemia, > 100 µM; in the test on SN12C renal it was > 100 µM; in the test on UACC-257 melanoma it was > 100 µM; in the test on SK-MEL-5 melanoma it was > 100000 nM. Also, the GI50 in the test on SF-295 CNS and with A549 NSCLC was > 100000 nM throughout. In addition, the TGI in the test on K-562 leukemia, in the test on UACC-62 melanoma, in the test on HL-60(TB) leukemia, in the test on SN12C renal, in the test with UACC-257 melanoma and with SK-MEL-5 melanoma was > 100 µM throughout. The TGI in the test on SF-295 CNS and in the test with A549 NSCLC was > 100 µM each time.

With `Cc1ccc(-c2csc(NC(=O)N3CCN(c4cc5c(cc4F)c(=O)c(C(=O)O)cn5C4CC4)CC3)n2)cc1`, the GI50 was 881 nM in the test on K-562 leukemia; 630 nM with UACC-62 melanoma; 0.796 µM with HL-60(TB) leukemia; 0.366 µM in the test with SN12C renal; 2 µM with UACC-257 melanoma; 889 nM in the test with SK-MEL-5 melanoma. Also, the results for the GI50 in the test on SF-295 CNS and in the test with A549 NSCLC were 762 nM and 365 nM, respectively. Also, the TGI in the test with K-562 leukemia was > 100 µM; in the test with UACC-62 melanoma, 6.29 µM; in the test with HL-60(TB) leukemia it was 4.51 µM; in the test with SN12C renal, > 100 µM; with UACC-257 melanoma, 6.58 µM; in the test on SK-MEL-5 melanoma, 2.51 µM. In addition, the TGI was 28.5 µM in the test on SF-295 CNS and > 100 µM in the test on A549 NSCLC.
